Laboratory results taken from patent publication US20260262643A1, “HERBICIDAL BENZOXAZINES” (FMC CORPORATION, priority 2022, published 2026).

Key:
Assay in all cases: Test A preemergence
Settings in all cases: 1000 g ai/ha, 0 to 100 scale (0 no effect, 100 complete control), 10 days
ragweed = type: in vivo, Ambrosia artemisiifolia
Procedure, shortened: (§1)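 Plants were grown in loam and sand and treated preemergence or postemergence (one- to two-leaf stage, 2–10 cm) with compound in solvent plus surfactant. Response was scored against untreated controls after 10 greenhouse days, where 0 means no effect and 100 complete control.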

foxtail, giant = type: in vivo, Setaria faberi
Procedure, shortened: as §1

barnyardgrass = type: in vivo, Echinochloa crusgalli
Procedure, shortened: as §1

kochia = type: in vivo, Bassia scoparia
Procedure, shortened: as §1

ryegrass, Italian = type: in vivo, Lolium multiflorum
Procedure, shortened: as §1

Pigweed, Redroot = type: in vivo, Amaranthus retroflexus
Description: Seeds of plant species selected from barnyardgrass (Echinochloa crusgalli), blackgrass (Alopecurus myosuroides), corn (Zea mays), foxtail, giant (giant foxtail, Setaria faberi), goosegrass (Eleusine indica), kochia (Bassia scoparia), oat, wild (wild oat, Avena fatua), pigweed, palmer (palmer amaranth, palmer pigweed, Amaranthus palmeri), Pigweed, Redroot (redroot pigweed, Amaranthus retroflexus), ragweed (common ragweed, Ambrosia artemisiifolia), ryegrass, Italian (italian ryegrass, Lolium multiflorum), soybean (Glycine max), and wheat (Triticum aestivum) were planted into a blend of loam soil and sand and treated preemergence with a directed soil spray using test chemicals formulated in a non-phytotoxic solvent mixture which included a surfactant. At the same time, plants selected from these crops and weed species and also galium (catchweed bedstraw, Galium aparine) and horseweed (Erigeron canadensis) were planted in pots containing the same blend of loam soil and sand and treated with postemergence applications of test chemicals formulated in the same manner. Plants ranged in height from 2 to 10 cm and were in the one- to two-leaf stage for the postemergence treatment. Treated plants and untreated controls were maintained in a greenhouse for 10 days, after which time all treated plants were compared to untreated controls and visually evaluated for injury. Plant response ratings, summarized in Table A, are based on a 0 to 100 scale where 0 is no effect and 100 is complete control. A dash (-) response means no test result.

| SMILES | Plant response rating, Ragweed (ragweed) | Plant response rating, Foxtail, Giant (foxtail, giant) | Plant response rating, Barnyardgrass (barnyardgrass) | Plant response rating, Kochia (kochia) | Plant response rating, Ryegrass, Italian (ryegrass, Italian) | Plant response rating, Pigweed, Redroot (Pigweed, Redroot) |
| --- | --- | --- | --- | --- | --- | --- |
| CCC1CN(C(=O)c2ccnc(-n3cncn3)c2)c2cccc(Br)c2O1 (stereo not drawn) [Compound 13] | 0 | 90 | 0 | 60 | 30 | 50 |
| CCC1CN(C(=O)c2ccnc(-n3cncn3)c2)c2c(Cl)cccc2O1 (stereo not drawn) [Compound 14] | 0 | 30 | 0 | 30 | 20 | 10 |
| CC(C)C1CN(C(=O)c2ccnc(-n3cncn3)c2)c2cccc(Cl)c2O1 (stereo not drawn) [Compound 3] | 0 | 0 | 0 | 0 | 0 | 0 |
| CCCC1CN(C(=O)c2ccnc(-n3cncn3)c2)c2cccc(Cl)c2O1 (stereo not drawn) [Compound 2] | 0 | 100 | 60 | 0 | 60 | 20 |
| CCC1CN(C(=O)c2ccnc(-n3cncn3)c2)c2cccc(C)c2O1 (stereo not drawn) [Compound 11] | 0 | 100 | 30 | 0 | 50 | 90 |
| CC1CN(C(=O)c2ccnc(-n3cncn3)c2)c2ccccc2O1 (stereo not drawn) [Compounds 8] | 0 | 90 | 0 | 50 | 40 | 10 |
